ChEMBL document CHEMBL1129130, “Preparation, antimicrobial evaluation and mutagenicity of differently substituted [2-hydroxyaryl]-[1-methyl-5-nitro-1H-2-imidazolyl]methanols” (1996)
≈ marks a conversion by molar mass, not a printed value.

Assays:
Salmonella typhimurium [1] = test: Compound was tested for the mutagenicity activity in the Salmonella Typhimurium reverse mutation assay; ++/+++-indicates the levels of mutagenicity as the number of revertant colonies obtained increases 5/10 times; format: functional, organism-based; conditions: Salmonella enterica subsp. enterica serovar Typhimurium
[2] = Minimum inhibitory concentration (MIC) of compound expressed as geometric mean of various bacterias.*; format: functional
Salmonella typhimurium [3] = test: Compound was tested for the mutagenicity activity in the Salmonella Typhimurium reverse mutation assay;(+) - low levels of mutagenicity; format: functional, organism-based; conditions: Salmonella enterica subsp. enterica serovar Typhimurium
Salmonella typhimurium [4] = test: Compound was tested for the mutagenicity activity in the Salmonella Typhimurium reverse mutation assay; +-indicates the levels of mutagenicity as the number of revertant colonies obtained increases 1.5-2 times; format: functional, organism-based; conditions: Salmonella enterica subsp. enterica serovar Typhimurium
Salmonella typhimurium [5] = test: Compound was tested for the mutagenicity activity in the Salmonella Typhimurium reverse mutation assay (+) - low levels of mutagenicity; format: functional, organism-based; conditions: Salmonella enterica subsp. enterica serovar Typhimurium
[6] = Minimum inhibitory concentration (MIC) of compound expressed as geometric mean of various bacterias.; format: functional
Salmonella typhimurium [7] = test: Compound was tested for the mutagenicity activity in the Salmonella Typhimurium reverse mutation assay; (+) - low levels of mutagenicity; format: functional, organism-based; conditions: Salmonella enterica subsp. enterica serovar Typhimurium

SMILES	MIC [2] [µM]	also measured
Cn1c([N+](=O)[O-])cnc1C(O)c1cc(C(C)(C)C)ccc1O (centres undefined) [ABUNIDAZOLE]	13.1 (≈ 4 µg/mL)	Mutagenicity (Salmonella typhimurium [1]): ++/+
Cn1c([N+](=O)[O-])cnc1C(O)c1cc(F)cc(C2C3C[C@H]4C[C@@H](C3)C[C@@H]2C4)c1O (some centres undefined)	3.97 (≈ 1.59 µg/mL)	Mutagenicity (Salmonella typhimurium [3]): low levels of mutagenicity
Cn1c([N+](=O)[O-])cnc1C(O)c1cc(C23C[C@H]4C[C@@H](C2)C[C@@H](C3)C4)ccc1O (some centres undefined)	2.43 (≈ 0.932 µg/mL)	–
Cn1c([N+](=O)[O-])cnc1C(O)c1cccc(C2CCCCC2)c1O (centres undefined)	4.68 (≈ 1.55 µg/mL)	Mutagenicity (Salmonella typhimurium [4]): Levels of mutagencity as the number of revertant colonies obtained increases 1.5-2 times
Cn1c([N+](=O)[O-])cnc1C(O)c1cc(C2C3C[C@H]4C[C@@H](C3)C[C@@H]2C4)ccc1O (some centres undefined)	1.8 (≈ 0.69 µg/mL)	–
Cc1ncc([N+](=O)[O-])n1CCO [METRONIDAZOLE]	1.46 (≈ 0.25 µg/mL)	–
Cn1c([N+](=O)[O-])cnc1C(O)c1cc(C2CCCCC2)ccc1O (centres undefined)	–	Mutagenicity (Salmonella typhimurium [5]): low levels of mutagenicity; MIC [6]: 8.82 µM (≈ 2.92 µg/mL)
Cn1c([N+](=O)[O-])cnc1C(O)c1cccc(C23C[C@H]4C[C@@H](C2)C[C@@H](C3)C4)c1O (some centres undefined)	4.46 (≈ 1.71 µg/mL)	Mutagenicity (Salmonella typhimurium [4]): Levels of mutagencity as the number of revertant colonies obtained increases 1.5-2 times
COc1cc(C(O)c2ncc([N+](=O)[O-])n2C)c(O)c(C(C)(C)C)c1 (centres undefined)	28.2 (≈ 9.46 µg/mL)	–
Cn1c([N+](=O)[O-])cnc1C(O)c1cccc(C2C3C[C@H]4C[C@@H](C3)C[C@@H]2C4)c1O (some centres undefined)	3.84 (≈ 1.47 µg/mL)	–
Cn1c([N+](=O)[O-])cnc1C(O)c1cc(Cl)cc(C2C3C[C@H]4C[C@@H](C3)C[C@@H]2C4)c1O (some centres undefined)	6.78 (≈ 2.83 µg/mL)	Mutagenicity (Salmonella typhimurium [3]): low levels of mutagenicity
COc1cc(C(O)c2ncc([N+](=O)[O-])n2C)c(O)c(C2C3C[C@H]4C[C@@H](C3)C[C@@H]2C4)c1 (some centres undefined)	4.21 (≈ 1.74 µg/mL)	Mutagenicity (Salmonella typhimurium [7]): low levels of mutagenicity
